According to patent US6649628B1, “N-[2-hydroxy-3-(1-piperidinyl)propoxy]pyridine-1-oxide-3-carboximidoyl chloride and its use in the treatment of insulin resistance” (Biorex Kutato es Fejleszto RT, priority 1999, dated 2003):

Experiments:
Format in all cases: in vivo, rat
[1] = tested on: STZ-diabetic Wistar rats; assay: Experiment 3: diabetic autonomous neuropathy after 1 month of treatment; settings: daily 20 mg/kg single dose
Method: The experiments were performed under anesthesia achieved by administering 60 mg/kg ip. pentobarbital sodium (Nembutal, Sanofi, Phylaxia). After this, an intratracheal tube or polyethylene canula was inserted into the fermoral artery and vein. The arterial catheter was connected to a pressure transducer for the simultaneous measurement of systolic and diastolic blood pressure (online automatic measuring and forwarding system, with a Haemosys computer program). After 20 minutes of equillibration period, the following substances were administered intravenously: Noradrenalin, 5 μg/kg iv.—Isoproterenol 0.4 μg/kg iv.—N.vagus stimulation (2 V, duration: 500 μsec, delay: 1 msec). The effects of the substances were monitored for 10 minutes.

[2] = tested on: STZ diabetic Wistar rats; assay: Preliminary test: N-oxide derivatives of bimoclomol on motor and sensor nerve conduction velocity deficit; settings: 20 mg/kg
Method: In a preliminary test the effectiveness of the three N-oxide derivatives of bimoclomol on motor and sensor neuropathy in STZ diabetic Wistar rats were studied. The effectiveness of the three bimoclomol N-oxide derivatives in improving the peripheral motor and sensor nerve conduction velocity deficit caused by streptozotocine-induced diabetes was determined with use of the method described in detail in Experiment 2.
(§1) (Graphpad Instat, San Diego, Calif.).

[3] = tested on: STZ-diabetic Wistar rats; assay: Experiment 5: urinary protein loss caused by diabetic nephropathy after 1-month treatment
Method: For the 24-hour period of urine collection, the animals were placed in individual metabolic cages. During this period they were given water ad libitum but no food. The latter measure was necessary to prevent possible contamination by the protein content of the food. Urine was collected in calibrated glass containers, in which Thymol crystal (Reanal 3135-1-08-38) was placed to prevent bacterial contamination.
Before measurement, the urine samples were centrifuged (2500 rpm) and filtered through a paper filter (Whatmann 1). If necessary, they were stored at −20° C. until measurement.
The total protein content of the urine was determined by the Bradford staining method (Sigma B-6916, St. Louis, Mo.), and color intensity was detected by spectrophotometry (Hitachi-U-3200).

[4] = tested on: obese, insulin resistant, hyperinsulinaemic Zucker fa/fa rats; assay: Experiment 1: carbohydrate metabolism (fasting glucose/insulin, ip glucose tolerance test) after 2-month treatment
Method: In the experiments so-called Zucker fa/fa rats (Charles River Laboratories Inc.) were used. In […] animals, obesity, insulin resistance, high blood insulin level, impaired glucose tolerance and hypertriglyceridaemia result from hypothalamic leptin receptor mutation. Due to the above characteristics, this is an accepted model of early type 2 diabetes.
The animals were placed in individual metabolic cages for 24 hours at the beginning of the study, and after 1 or 2 months of treatment for 24 hours of urine collection.
The animals were given either the test substances or physiological saline solution by gavage for control once a day between weeks 14-22.
Biochemical parameters of the blood and the urine were measured by a Kodak Ectachem 700 automatic analyzer. The total protein level of the urine was determined spectrophotometrically with the use of Bradford staining (Hitachi U-3200) at 595 nm. The insulin concentration of the serum was determined by the RIA method, using rat anti-insulin antibodies.
Systolic, diastolic blood pressure and heart rate were measured weekly on the tails of the rats (so-called tail cuff method) by a Letica 200 automatic analyzer. After two months of treatment, the level of glucose tolerance was determined by the intraperitoneal glucose tolerance test (2 g/kg ip.).

[5] = tested on: STZ-diabetic Wistar rats; assay: Experiment 2: peripheral neuropathy, nerve conduction velocity after 1-month treatment
Source text: as §1

[6] = tested on: STZ-diabetic Wistar rats; assay: Experiment 4: histological alterations of early diabetic retinopathy after 1 month of treatment; settings: 1 month
Method: Photographs and slide positives were prepared of representative samples.
The given value for negative cases was 0.1. A Box and Whisker plot graph was also prepared.

[7] = 1 month, isoproterenol 0.4 μg/kg iv.
[8] = 20 mg/kg p.os daily, 2-month treatment
[9] = intraperitoneal glucose tolerance test
[10] = ip glucose tolerance test 2 g/kg, AUC 0-60 minutes, 20 mg/kg p.os daily, 2-month treatment
[11] = 20 mg/kg p.os once a day, 1 month

**Q.** What does the source list for O=C(O)/C=C\C(=O)O.OC(CON=C(Cl)c1cccnc1)CN1CCCCC1 (racemic) [bimoclomol, maleate of O-(3-piperidino-2-hydroxy-1-propyl)-3-pyridyne hydroxymic acid-chloride, reference compound]?
**A.** effect on pathological deviations resulting from autonomous neuropathy [1]: significantly reduced; Increased negative chronotropic effect on vagus stimulation ([1]; 1 month): ↑ (corrects); Reduced hypotension on vagus stimulation ([1]; 1 month): ↑ (corrects); Systemic arterial hypotension (deviation due to diabetes) ([1]; 1 month): ↑ (corrects); Weight loss (deviation due to diabetes) ([1]; 1 month): ↑ (corrects); Reduced IS induced positive chronotropic effect [1, 7]: ↑ (corrects); Reduced IS induced systemic arterial hypotension [1, 7]: ↑ (corrects); Reduced NA induced systemic arterial pressure response ([1]; 1 month, noradrenalin 5 μg/kg iv.): ↑ (corrects); Improvement of nerve conduction velocity (%) motor (MNCV) [2]: 72,4%; Improvement of nerve conduction velocity (%) sensor (SNCV) [2]: 66,9%; 24-hour Urinary Protein Loss Mean ± SE ([3]; 20 mg/kg daily, 1 month, series 1): 3.66 ± 1.39 mg/24 h; effect on STZ-diabetes-induced urinary protein loss ([3]; Bimoclomol 20 mg/kg, Compound-A 10 mg/kg, (+) enantiomer 5 mg/kg daily): significantly reduced; effect on fasting blood glucose ([4]; 20 mg/kg p.os daily): significantly reduced; effect on fasting insulin concentration ([4]; 20 mg/kg p.os daily): did not effect; Fasting Blood Glucose (mean ± SE) [4, 8]: 8.179 ± 0.316 mmol/L; Fasting Insulin (mean ± SE) [4, 8]: 29.362 ± 9.211 ng/mL; effect on AUC of insulin [4, 9]: had no effect; effect on area under the blood glucose curve (AUC) [4, 9]: neither bimoclomol, nor Compound A effected; Blood Glucose (AUC) (mean ± SE) [4, 10]: 1286.86 ± 131.59; Insulin (AUC) (mean ± SE) [4, 10]: 2337.71 ± 590.49; effect on peripheral insulin resistance ([4]; summary of Experiment 1): does not; MNCV [5, 11]: 57.4 ± 0.2 m/s; MNCV improvement [5, 11]: 79.7%; SNCV [5, 11]: 58.5 ± 0.6 m/s; SNCV improvement [5, 11]: 77.9%; effect on motor (MNCV) and sensor (SNCV) nerve conduction velocities ([5]; bimoclomol 20 mg/kg, Compound A 5 mg/kg once a day): significantly improved; Score values Improvement % ([6]; 20 mg/kg daily): 61.3%; Score values Mean ± SE (retinopathy histology) ([6]; 20 mg/kg daily): 5.185 ± 1.019; effect on diabetic retinopathy induced pathological histological alterations ([6]; Compound A 5 mg/kg, bimoclomol 20 mg/kg daily): significantly improved
